According to patent US12686676B2, “Compound, endothelin-A receptor antagonist, and pharmaceutical composition” (Alchemedicine, Inc., priority 2021, dated 2026):
pIC50: −log10 of the molar value.

How the values were obtained:
[1] = target: T1, ETA receptor (Homo sapiens, UniProt P25101); details: cited from earlier work
T1 sequence (P25101 21-427): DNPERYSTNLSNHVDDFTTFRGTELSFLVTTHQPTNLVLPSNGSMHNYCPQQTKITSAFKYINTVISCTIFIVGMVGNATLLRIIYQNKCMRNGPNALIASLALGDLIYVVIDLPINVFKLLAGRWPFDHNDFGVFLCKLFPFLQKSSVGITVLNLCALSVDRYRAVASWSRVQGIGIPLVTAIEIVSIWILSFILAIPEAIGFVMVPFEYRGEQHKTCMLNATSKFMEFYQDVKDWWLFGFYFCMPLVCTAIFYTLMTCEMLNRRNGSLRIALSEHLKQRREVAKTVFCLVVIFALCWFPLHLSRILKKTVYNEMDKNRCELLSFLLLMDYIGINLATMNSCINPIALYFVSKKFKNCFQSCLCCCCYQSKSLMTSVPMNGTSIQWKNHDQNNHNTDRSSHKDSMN

[2] = target: T2, CYP2C9 (Homo sapiens, UniProt P11712); test: CYP2C9 inhibitory effect (liver microsome fraction, diclofenac substrate); type: in vitro ADME; details: liver microsome fraction 0.5 mg/mL, diclofenac 2.5 μM
T2 construct: A frozen liver microsome fraction was thawed on ice; from tissue; host or cells: liver microsome fraction
Protocol: The inhibitory effect on CYP2C9 was evaluated by the following method. • (1) A frozen liver microsome fraction was thawed on ice and diluted with a potassium phosphate buffer (PPB) to a final concentration of 0.5 mg/mL. • (2) A substrate for evaluation (diclofenac: D6899 from Sigma-Aldrich Co. LLC) was added thereto such that its final concentration was 2.5 μM. • (3) The mixture was slowly mixed and incubated at 37±1° C. for 5 minutes to prepare a reaction solution. • (4) 801 μL of the reaction solution was dispensed to each tube, and an evaluation compound serially diluted with 0.9 μL of DMSO was added thereto such that its final concentration was 9.1 to 20000 nM (⅓ dilutions with 8 concentrations). In this context, 0.9 μL of DMSO was added to a negative control group, and 0.9 μL of sulfaphenazole (S0758 from Sigma-Aldrich Co. LLC) adjusted to a final concentration of 1 μM with DMSO was added to a positive control group. • (5) After mixing, a 270 μL aliquot was transferred to each of two fresh tubes and incubated in a shaking water bath at 37±1° C. for 5 minutes. • (6) Reaction was started by the addition of 30 μL of 10 mM NADPH, and the tubes were incubated at 37° C.±1° C. for 10 minutes. • (7) The tubes were taken out of the shaking water bath, and the reaction was terminated by the addition of 300 μL of a reaction stop solution. After mixing, the tubes were centrifuged at 1021×g at 4° C. for 20 minutes. • (8) The amount of the substrate for evaluation metabolized was determined by LC-MS/MS to calculate the rate of inhibition at each concentration of the evaluation compound. • (9) IC50 values were calculated using GraphPad Prism5. A sample having an IC50 value of 1 μM or lower was given “++”; a sample having an IC50 value in the range of higher than 1 μM and 10 μM or lower was given “+”; and a sample having an IC50 value of higher than 10 μM was given “−”.

[3] = in vivo; cited from earlier work
[4] = in vivo; cited from earlier work; remark: listed apart in the source
[5] = pulmonary hypertension associated with connective tissue disease; cited from earlier work
[6] = target: T3, human endothelin B receptor (Homo sapiens, UniProt P24530); test: Endothelin B receptor inhibitory effect (aequorin light emission, endothelin at EC80); type: cell-based; details: CHO-K1-mt aequorin cells expressing human endothelin B receptor; endothelin at EC80; read-out: ETB receptor inhibitory effect
T3 construct: expressed in transfected cells; host or cells: CHO-K1-mt aequorin cells
T3 sequence (P24530 27-442): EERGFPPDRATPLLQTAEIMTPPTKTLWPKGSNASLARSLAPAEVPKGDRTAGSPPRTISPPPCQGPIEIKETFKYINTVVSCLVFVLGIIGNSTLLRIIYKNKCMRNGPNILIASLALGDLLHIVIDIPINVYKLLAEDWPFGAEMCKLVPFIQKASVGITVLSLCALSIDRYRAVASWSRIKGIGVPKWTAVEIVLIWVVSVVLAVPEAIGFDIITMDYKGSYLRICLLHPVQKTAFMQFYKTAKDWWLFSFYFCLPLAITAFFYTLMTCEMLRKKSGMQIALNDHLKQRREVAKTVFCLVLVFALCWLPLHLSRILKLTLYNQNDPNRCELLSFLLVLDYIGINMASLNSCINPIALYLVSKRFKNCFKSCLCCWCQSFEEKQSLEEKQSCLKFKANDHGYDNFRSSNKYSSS
Protocol: The inhibitory effect on an endothelin B receptor was studied by the following method.
(§1) CHO-K1-mt aequorin cells forced to express a human endothelin B receptor (Accession Number NP_000106.1) were cultured in an antibiotic-free medium for 18 hours, then treated with PBS-EDTA (5 mM EDTA), centrifuged (2 min, 405×g, room temperature), and then suspended in an assay buffer (DMEM/HAM's F12 with HEPES+0.1% BSA protease free).
(§2) 1×10^6 cells/mL of the cells were incubated at room temperature for 4 hours in the presence of coelenterazine h (Molecular Probes, Inc.) (final concentration: 5 µM). Agonistic reaction based on endothelin was confirmed to determine an endothelin concentration corresponding to EC80.
(§3) Subsequently, 50 µL (10000 cells/well) of the cell suspension treated with coelenterazine h and 50 µL of an assay buffer containing a test substance (final concentration: 0.5% in DMSO) were added to each well of a 96-well plate. 15 minutes later, endothelin was added such that its final concentration was an EC80 concentration. Receptor activity was measured as the quantity of light emission in FDSS6000 (Hamamatsu Photonics K.K.).

[7] = target: T4, human endothelin A receptor (Homo sapiens, UniProt P25101); test: Endothelin A receptor inhibitory effect (aequorin light emission, endothelin at EC80); type: cell-based; details: for pIC50: CHO-K1-mt aequorin cells expressing human endothelin A receptor, endothelin at EC80, read-out: ETA receptor inhibitory effect; for ETA selectivity (ETB/ETA): ETB IC50 value/ETA IC50 value
T4 construct: expressed in transfected cells; host or cells: CHO-K1-mt aequorin cells
T4 sequence (P25101 21-427): T1 sequence (P25101 21-427)
Protocol: The inhibitory effect on an endothelin A receptor was studied by the following method.
as §1, with “endothelin A” for “endothelin B”, “Number NP_001948.1)” for “Number NP_000106.1)”
as §2
as §3, with “K.K.). IC50 values were calculated using XLfit (ID Business Solutions Ltd. (IDBS)).” for “K.K.).”

T2 sequence (P11712 whole entry): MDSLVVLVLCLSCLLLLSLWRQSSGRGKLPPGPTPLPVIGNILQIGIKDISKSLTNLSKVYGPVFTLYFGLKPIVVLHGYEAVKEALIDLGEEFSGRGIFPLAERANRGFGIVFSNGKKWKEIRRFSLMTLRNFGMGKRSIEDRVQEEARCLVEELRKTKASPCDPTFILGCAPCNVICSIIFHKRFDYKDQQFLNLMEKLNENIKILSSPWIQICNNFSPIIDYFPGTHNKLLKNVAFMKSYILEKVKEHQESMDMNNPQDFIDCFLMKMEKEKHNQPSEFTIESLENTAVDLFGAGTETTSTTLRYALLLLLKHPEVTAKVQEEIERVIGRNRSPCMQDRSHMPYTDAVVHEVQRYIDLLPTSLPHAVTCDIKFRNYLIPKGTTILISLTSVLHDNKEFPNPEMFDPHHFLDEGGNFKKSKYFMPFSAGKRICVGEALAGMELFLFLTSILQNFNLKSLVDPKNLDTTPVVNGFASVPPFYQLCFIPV

| Structure (SMILES) | Selective inhibition of ETA receptor in contrast to ETB receptor [1] | pIC50 [2] | Peripheral edema [3] | Effect on endothelin concentrations in blood [4] | Drug efficacy in clinical trials [5] | pIC50 [6] | pIC50 [7] | ETA selectivity (ETB/ETA) [7] |
| --- | --- | --- | --- | --- | --- | --- | --- | --- |
| Cc1cc2c(cc1CC(=O)c1sccc1S(=O)(=O)Nc1onc(C)c1Cl)OCO2 [Comparative Example 1, sitaxentan, reference compound] | selectively inhibit the ETA receptor | ≥ 6.00 | not cause peripheral edema | not increase endothelin concentrations in blood | significant drug efficacy | < 5.30 | 8.00 to 9.00 | ++ (ETB IC50 value/ETA IC50 value of higher than 5000) |
| Cc1cc2c(cc1CC(=O)c1sccc1S(=O)(=O)Nc1onc(C)c1Cl)COC2 [Comparative Example 2, reference compound] |  | ≥ 6.00 |  |  |  | < 5.30 | ≥ 9.00 | ++ (ETB IC50 value/ETA IC50 value of higher than 5000) |
| Cc1cc2c(cc1C#Cc1ncccc1S(=O)(=O)Nc1noc(C)c1C)C(C)OC2 (centres unmarked) [Example 2, 2-((3,6-Dimethyl-1,3-dihydroisobenzofuran-5-yl)ethynyl)-N-(4,5-dimethylisoxazol-3-yl)pyridine-3-sulfonamide] |  |  |  |  |  | < 5.30 | ≥ 9.00 | ++ (ETB IC50 value/ETA IC50 value of higher than 5000) |
| Cc1cc2c(cc1C#Cc1ncccc1S(=O)(=O)Nc1noc(C)c1C)COC2C (centres unmarked) [Example 11, 2-((1,6-Dimethyl-1,3-dihydroisobenzofuran-5-yl)ethynyl)-N-(4,5-dimethylisoxazol-3-yl)pyridine-3-sulfonamide] |  |  |  |  |  | < 5.30 | 8.00 to 9.00 |  |
